Here are results for 7 compounds from publication PMC12530851, “Design, synthesis, and apoptotic antiproliferative activity of novel dihydropyrimidine-5-carbonitrile/1,2,4-oxadiazole hybrids as dual EGFR/VEGFR-2 inhibitors endowed with antioxidant activity” (RSC Advances, 2025).

For data set [1], the target named is T1, EGFR (Homo sapiens, UniProt P00533). Briefly: EGFR inhibitory assay (EGFR-TK test).
Description: Baculoviral expression vectors including pBlueBacHis2B and pFASTBacHTc were used
5ʹ upstream to the EGFR sequence comprised a sequence that encoded (His)6. Sf-9 cells were infected for 72h for protein expression. The pellets of Sf-9 cells were solubilized in a buffer containing sodium vanadate (100 μM), aprotinin (10 μg/mL), triton (1%), HEPES
buffer(50mM), ammonium molybdate (10 μM), benzamidine HCl (16 μg/mL), NaCl (10 mM),leupeptin (10 μg/mL) and pepstatin (10 μg/mL) at 0°C for 20 min at pH 7.4, followed by centrifugation for 20 min. To eliminate the nonspecifically bound material, a Ni-NTA super flow packed column was used to pass through and wash the crude extract supernatant first with 10mM and then with 100 mM imidazole. Histidine-linked proteins were first eluted with 250 and then with 500 mM imidazole subsequent to dialysis against NaCl (50 mM), HEPES (20 mM), glycerol (10%) and 1 μg/mL each of aprotinin, leupeptin and pepstatin for 120 min. The purification was performed either at 4 °C or on ice. To record autophosphorylation level, EGFR kinase assay was carried out on the basis of DELFIA/Time-Resolved Fluorometry. The compounds were first
dissolved in DMSO absolute, subsequent to dilution to appropriate concentration using HEPES
(25 mM) at pH 7.4. Each compound (10 μL) was incubated with recombinant enzyme (10 μL, 5
ng for EGFR, 1:80 dilution in 100 mM HEPES) for 10 min at 25 °C, subsequent to the addition of
5X buffer (10 μL, containing 2 mM MnCl2, 100 μM Na3VO4, 20 mM HEPES and 1 mM DTT)
and ATP-MgCl2 (20 μL, containing 0.1 mM ATP and 50 mM MgCl2) and incubation for 1h. The
negative and positive controls were included in each plate by the incubation of enzyme either with
or without ATP-MgCl2. The liquid was removed after incubation and the plates were washed
thrice using a wash buffer. The Europium-tagged antiphosphotyrosine antibody (75 μL, 400 ng)
was added to each well followed by incubation of 1h and then washing of the plates using buffer.
The enhancement solution was added to each well and the signal was recorded at excitation and
The autophosphorylation percentage inhibition by compounds was calculated using the following equation:
calculated. The majority of signals detected by antiphosphotyrosine antibody were from EGFR because the enzyme preparation contained low impurities.
For data set [2], the system named is HT-29 (colon cancer). Briefly: Antiproliferative assay, HT-29. It counts as cell-based. Particulars: Homo sapiens; HT-29 colon cancer cells; read-out: Antiproliferative activity IC50 ± SEM, HT-29. The text has this: (§1) The dose–response experiments established the IC50 values for the new compounds. The given findings were obtained from at least two distinct studies, each comprising three repeats per concentration. Appendix A (SI File) provides experimental details.[38,39]
(§2) The MTT assay[43] was utilized to assess the antiproliferative effects of compounds 10a–l on four human cancer cell lines: HT-29 (colon cancer), Panc-1 (pancreatic cancer), A-549 (lung cancer), and MCF-7 (breast cancer). […]
(§3) 4.2.2. Assay for antiproliferative effect
(§4) To explore the antiproliferative potential of compounds propidium iodide fluorescence assay was performed using different cell lines such as Panc-1 (pancreas cancer cell line), MCF-7 (breast cancer cell line), HT-29 (colon cancer cell line) and A-549 (epithelial cancer cell line), respectively. To calculate the total nuclear DNA, a fluorescent dye (propidium iodide, PI) is used which can attach to the DNA, thus offering a quick and precise technique. PI cannot pass through the cell membrane and its signal intensity can be considered as directly proportional to quantity of cellular DNA. Cells whose cell membranes are damaged or have changed permeability are counted as dead ones. The assay was performed by seeding the cells of different cell lines at a density of 3000-7500 cells/well (in 200μl medium) in culture plates followed by incubation for 24h at 37 °C in humidified 5%CO2/95% air atmospheric conditions. The medium was removed; the compounds were added to the plates at 10 μM concentrations (in 0.1% DMSO) in triplicates, followed by incubation for 48h. DMSO (0.1%) was used as control. After incubation, medium was removed followed by the addition of PI (25 μl, 50μg/mL in water/medium) to each well of the plates. At - 80 °C, the plates were allowed to freeze for 24 h, followed by thawing at 25 °C. A fluorometer (Polar-Star BMG Tech) was used to record the readings at excitation and emission wavelengths of 530 and 620 nm for each well. The percentage cytotoxicity of compounds was calculated using […]
(§5) Where ATC= Absorbance of treated cells and AC= Absorbance of control. Erlotinib was used as positive control in the assay. […]

In data set [3] the test system is MCF-7 (breast cancer). Briefly: Antiproliferative assay, MCF-7. Particulars: Homo sapiens, MCF7; MCF-7 breast cancer cells; read-out: Antiproliferative activity IC50 ± SEM, MCF-7. It counts as cell-based, human.
Text: as §1, §2, §3, §4, §5

Data set [4] has as its system A-549 (lung cancer). Briefly: Antiproliferative assay, A-549. It counts as cell-based. Particulars: Homo sapiens, A549; A-549 lung cancer cells; read-out: Antiproliferative activity IC50 ± SEM, A-549.
Text: as §1, §2, §3, §4, §5

Data set [5] deals with T2, VEGFR-2 (Homo sapiens, UniProt P35968). Briefly: VEGFR-2 inhibitory assay.
T2 sequence (P35968 20-1356): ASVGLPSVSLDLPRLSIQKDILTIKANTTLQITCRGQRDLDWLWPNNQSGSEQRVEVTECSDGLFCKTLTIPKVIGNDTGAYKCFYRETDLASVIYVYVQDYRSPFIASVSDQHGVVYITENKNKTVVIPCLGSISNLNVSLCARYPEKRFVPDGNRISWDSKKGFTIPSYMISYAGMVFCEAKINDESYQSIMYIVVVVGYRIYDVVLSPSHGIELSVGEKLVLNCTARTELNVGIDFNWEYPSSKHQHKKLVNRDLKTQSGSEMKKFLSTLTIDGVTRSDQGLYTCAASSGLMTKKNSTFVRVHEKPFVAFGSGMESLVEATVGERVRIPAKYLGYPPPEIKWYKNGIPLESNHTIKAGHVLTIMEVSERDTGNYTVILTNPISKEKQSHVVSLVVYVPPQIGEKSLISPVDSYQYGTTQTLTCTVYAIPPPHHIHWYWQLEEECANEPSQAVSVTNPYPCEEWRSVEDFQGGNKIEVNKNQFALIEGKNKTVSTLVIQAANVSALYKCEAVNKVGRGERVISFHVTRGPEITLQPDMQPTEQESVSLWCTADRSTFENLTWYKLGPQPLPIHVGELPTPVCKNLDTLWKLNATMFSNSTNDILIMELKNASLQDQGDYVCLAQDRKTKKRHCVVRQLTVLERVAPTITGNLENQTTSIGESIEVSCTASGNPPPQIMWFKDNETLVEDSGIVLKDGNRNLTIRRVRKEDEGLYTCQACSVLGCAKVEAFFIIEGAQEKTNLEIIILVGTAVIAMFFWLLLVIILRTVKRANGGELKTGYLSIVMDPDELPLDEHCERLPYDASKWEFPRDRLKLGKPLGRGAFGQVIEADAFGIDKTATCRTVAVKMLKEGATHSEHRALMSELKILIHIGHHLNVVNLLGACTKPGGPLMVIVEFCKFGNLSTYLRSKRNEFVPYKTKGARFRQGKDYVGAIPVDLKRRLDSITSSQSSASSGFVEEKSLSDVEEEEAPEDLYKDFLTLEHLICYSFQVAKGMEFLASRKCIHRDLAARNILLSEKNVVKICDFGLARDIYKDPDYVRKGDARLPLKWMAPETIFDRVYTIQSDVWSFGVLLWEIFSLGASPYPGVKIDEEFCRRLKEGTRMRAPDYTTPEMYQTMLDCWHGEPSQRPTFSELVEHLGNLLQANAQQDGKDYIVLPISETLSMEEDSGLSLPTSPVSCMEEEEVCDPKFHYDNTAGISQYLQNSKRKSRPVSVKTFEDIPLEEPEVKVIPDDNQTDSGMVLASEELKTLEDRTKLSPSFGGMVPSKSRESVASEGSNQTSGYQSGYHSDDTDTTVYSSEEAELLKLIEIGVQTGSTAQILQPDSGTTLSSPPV
Description: The majority of signals detected by antiphosphotyrosine antibody were from EGFR because the enzyme preparation contained low impurities.
Prepare all the solutions using autoclaved, deionized water and analytical grade reagents. Prepare
and store all the reagents at room temperature (unless indicated otherwise). EDTA solution (0.5
M, pH 8.0): add 95 mL ultra-pure water to 14.612 g EDTA, adjust the pH to 8.0 using NaOH
solution, add 5 mL ultra-pure water; 1×Kinase Assay Buffer: add 25 mL HEPES solution (1 M),
water, adjust pH to 7.5 and constant volume to 500 mL using ultrapure water; 4×Stop solution (40
mM): Mix 0.8 mL of the foregoing EDTA solution, 1 mL 10×Detection Buffer and 8.2 mL ultra-
pure water; 1×Detection Buffer: Mix 1 mL 10×Detection Buffer with 9 mL water; 4×VEGFR
μM) was added to 624 μL 1×Kinase Assay Buffer and mixed; 4×ULight™-labeled JAK1
concentration 5 μM) was added to 576 μL 1×Kinase Assay Buffer and mixed; 4×ATP Solution
2×substrate/ATP Mix: 560 μL foregoing 4×ULight™-labeled JAK1 and 560 μL 4×ATP solution
and mixed (prepared before use). The assays used an ULight-labeled peptide substrate and a
Europium-W1024-labeled antiphosphotyrosine antibody. The VEGFR-2 was purchased from
Carna Biosciences, Inc. (New York, USA). The 384-well plates were obtained from PerkinElmer.
Compounds were dissolved in DMSO and diluted to 11 concentrations at a tripling rate from 2.500
5 μL 2×VEGFR-2 kinase solution (0.5 nM)
was added to 384-well plates homogeneous mixing and pre-reaction at room temperature for 30
min. Next, 2.5 μL 4×Ultra ULightTM-JAK-1(Tyr1023) Peptide (200 nM)/ATP (40 μM) was
added to the corresponding wells of a 384-well plate. Negative control: 2.5 μL/well 4×substrate/ATP mixture and 7.5 μL 1×kinase assay buffer in 384-well plate well. Positive control:
μL/well 2×VEGFR-2 kinase solution was added to the 384-well plate, The final concentration of DMSO in the mixing system was 4%. After incubation at room temperature and dark for 60 min, 5 μL 4×stop solution was added to corresponding wells to react for 5 min and then 5 μL 4×detection mix was added to the corresponding wells of a 384-well plate. The mixture was centrifugally mixed and stayed for 60 min at room temperature for color development. The plate
was read using an Envision plate reader. The inhibition rate (%) = (positive well reading-
compound well reading)/(positive well reading-negative well reading)×100. The corresponding IC50 values were calculated using GraphPad Prism 5.0.
Data set [6] concerns four human cancer cell lines (A-549, MCF-7, Panc-1, HT-29). Briefly: Antiproliferative assay, average over four cancer cell lines. Format: cell-based. Conditions: for GI50: average IC50 across A-549, MCF-7, Panc-1, HT-29; for Reduction in antiproliferative potency relative to 10k (GI50): less potent than 10k. On the procedure: The given findings were obtained from at least two distinct studies, each comprising three repeats per concentration. Appendix A (SI File) provides experimental details.[38,39] […]
as §3
To explore the antiproliferative potential of compounds propidium iodide fluorescence assay was performed using different cell lines such as Panc-1 (pancreas cancer cell line), MCF-7 (breast […]
respectively. To calculate the total nuclear DNA, a fluorescent dye (propidium iodide, PI) is used which can attach to the DNA, thus offering a quick and precise technique. PI cannot pass through the cell membrane and its signal intensity can be considered as directly proportional to quantity of cellular DNA. Cells whose cell membranes are damaged or have changed permeability are counted as dead ones. The assay was performed by seeding the cells of different cell lines at a density of 3000-7500 cells/well (in 200μl medium) in culture plates followed by incubation for 24h at 37 °C […]
The medium was removed; the compounds were added to the plates at 10 μM concentrations (in 0.1% DMSO) in triplicates, followed by incubation for 48h. DMSO (0.1%) was used as control. After incubation, medium was removed followed by the addition of PI (25 μl, 50μg/mL in water/medium) to each well of the plates. At - 80 °C, the plates were allowed to freeze for 24 h, followed by thawing at 25 °C. A fluorometer (Polar-Star BMG Tech) was used to record the readings at excitation and emission wavelengths of 530 and 620 nm for each well. The percentage cytotoxicity of compounds was calculated using […]
Where ATC= Absorbance of treated cells and AC= Absorbance of control. […]
positive control in the assay. […]

Data set [7] has as its system Panc-1 (pancreatic cancer). Briefly: Antiproliferative assay, Panc-1. It counts as cell-based. Particulars: Homo sapiens; Panc-1 pancreatic cancer cells; read-out: Antiproliferative activity IC50 ± SEM, Panc-1.
Text: as §1, §2, §3, §4, §5

A short description of data set [8]: Cell viability assay (MTT) on normal MCF-10A cells. Particulars: human, MCF-10A mammary gland epithelial cells (normal cell line), MCF-10A normal cells, four-day incubation. It counts as cell-based. On the procedure: The impact of novel compounds 10a–l on the viability of a normal human cell line, specifically human mammary gland epithelial cells (MCF-10A), was assessed to ascertain the safety of the newly synthesized compounds. The MTT test was employed to assess the cell viability of the novel compounds after a four-day incubation with MCF-10A cells.[29,37] Refer to Appendix A for more experimental details.
The effect of new compounds 10a–l on the viability of a normal human cell line, namely human mammary gland epithelial cells (MCF-10A), was evaluated to determine the safety of the newly synthesized compounds.
4.2. Biological evaluation
4.2.1 Cell Viability assay (MTT assay)
MTT assay was performed to investigate the effect of the synthesized compounds on mammary epithelial cells (MCF-10A). The cells were propagated in medium consisting of Ham's F-12 medium/ Dulbecco's modified Eagle's medium (DMEM) (1:1) supplemented with 10% foetal calf serum, 2 mM glutamine, insulin (10 μg/mL), hydrocortisone (500 ng/mL) and epidermal growth factor (20 ng/mL). Trypsin ethylenediamine tetra acetic acid (EDTA) was used to passage the cells after every 2-3 days. 96-well flat-bottomed cell culture plates were used to seed the cells at a density of 10^4 cells mL-1. The medium was aspirated from all the wells of culture plates after 24 h followed by the addition of synthesized compounds (in 200 μL medium to yield a final concentration of 0.1% (v/v) dimethyl sulfoxide) into individual wells of the plates. Four wells were designated to a single compound. The plates were allowed to incubate at 37°C for 96 h. Afterwards, the medium was aspirated and 3-[4,5-dimethylthiazol-2-yl]-2,5-diphenyltetrazolium bromide (MTT) (0.4 mg/mL) in medium was added to each well and subsequently incubated for 3 h. The medium was aspirated and 150 μL dimethyl sulfoxide (DMSO) was added to each well. The plates were vortexed followed by the measurement of absorbance at 540 nm on a microplate reader. […]

For data set [9], the system named is BRAF^V600E. Also noted: method as in PMID 39281035. Particulars: cited from earlier work.
Data set [10] relates to mutant EGFR (EGFR^T790M). Also noted: method as in PMID 39281035. Particulars: cited from earlier work.
For data set [11], the target named is T1, EGFR. Also noted: 645–1186; His6 (N); made in house; host or cells: Sf-9 insect cells (baculovirus; pBlueBacHis2B and pFASTBacHTc vectors). Particulars: cited from earlier work.
The target of data set [12] is T2, VEGFR-2. Also noted: purchased Carna Biosciences, Inc. Particulars: cited from earlier work.

Where two headings read alike, the source gives them in different places.

T1 sequence (P00533 669-1210): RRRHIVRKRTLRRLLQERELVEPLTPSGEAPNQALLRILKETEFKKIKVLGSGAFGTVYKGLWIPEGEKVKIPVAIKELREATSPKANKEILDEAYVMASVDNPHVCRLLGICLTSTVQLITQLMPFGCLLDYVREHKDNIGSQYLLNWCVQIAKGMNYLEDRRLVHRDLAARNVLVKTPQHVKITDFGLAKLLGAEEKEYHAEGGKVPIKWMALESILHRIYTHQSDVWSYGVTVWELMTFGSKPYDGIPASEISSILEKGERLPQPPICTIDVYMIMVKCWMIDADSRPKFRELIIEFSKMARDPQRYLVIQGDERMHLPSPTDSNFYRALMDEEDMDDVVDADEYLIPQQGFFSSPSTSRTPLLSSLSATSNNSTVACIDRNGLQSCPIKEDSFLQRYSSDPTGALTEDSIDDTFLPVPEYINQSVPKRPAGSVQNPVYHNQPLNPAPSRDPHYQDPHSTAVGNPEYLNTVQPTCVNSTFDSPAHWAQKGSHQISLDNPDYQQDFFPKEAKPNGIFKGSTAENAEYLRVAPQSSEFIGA

Usually IC50 stands for the concentration that gives 50% inhibition. The GI50 is the concentration at which growth is held to half of that of the control. Higher therefore signals less potent growth inhibition. For orientation: viability means the share of living cells, or the viability signal relative to a control. The low end stands for more harm to the cells, the high end for less harm to the cells. For `N#Cc1c(-c2ccc(Cl)cc2)nc(SCc2nc(-c3ccc(Cl)cc3)no2)[nH]c1=O` [Compound 10h, 2-(((3-(4-Chlorophenyl)-1,2,4-oxadiazol-5-yl)methyl)thio)-4-(4-chlorophenyl)-6-oxo-1,6-dihydropyrimidine-5-carbonitrile], the IC50 came to 79 ± 5 nM in [1]; 36 ± 2 nM in [2]; 31 ± 2 nM in data set [3]; 35 ± 2 nM in data set [4]; 43 ± 3 nM in [5]; 35 ± 2 nM in [7]. Also, the GI50 in [6] (Homo sapiens) was found to be 31 nM; in data set [6], 34 nM. Besides, the “Reduction in antiproliferative potency relative to 10k (GI50)” value in data set [6] turned out to be 1.6 fold. The compound also gave a viability at 96 h, 50 µM in [8] of 92%.

For `O=c1c2ccccc2nc(SCc2nc(-c3ccc(Cl)cc3)no2)n1-c1ccccc1` [Compound IV], in data set [9], the IC50 was 48 nM. Further, the “Efficacy against mutant EGFR (EGFR^T790M)” value in data set [10] is “considerable efficacy”.

On to `N#Cc1c(-c2ccncc2)nc(SCc2nc(-c3ccc(Cl)cc3)no2)[nH]c1=O` [Compound 10e, 2-(((3-(4-Chlorophenyl)-1,2,4-oxadiazol-5-yl)methyl)thio)-6-oxo-4-(pyridin-4-yl)-1,6-dihydropyrimidine-5-carbonitrile], for which the IC50 amounted to 65 ± 4 nM in [1]; 30 ± 2 nM in data set [2]; 25 ± 1 nM in data set [3]; 30 ± 2 nM in [4]; 32 ± 2 nM in data set [5]; 28 ± 1 nM in data set [7]. In data set [6] (Homo sapiens), this compound came in with a GI50 of 28 nM. For the same compound, the “Reduction in antiproliferative potency relative to 10k (GI50)” value in data set [6] stood at 1.3 fold. The viability at 96 h, 50 µM in [8] is 90%.

`COc1ccc(-c2csc(NC(=O)CSc3nc(-c4ccc(OC)cc4)c(C#N)c(=O)[nH]3)n2)cc1` [Compound I]: the IC50 in data set [11] (in vitro EGFR inhibitory assay) was 190 ± 200 nM.

As for `COc1cc(-c2noc(Cn3cc(-c4ccccc4)nn3)n2)cc(OC)c1OC` [Compound III], the figures for the IC50 in data set [11] and in data set [12] (read-out: VEGFR-2 IC50) were 76 nM and 2.4 nM, respectively.

For `COc1ccc(-c2noc(CSc3nc(-c4ccc(Cl)cc4)c(C#N)c(=O)[nH]3)n2)cc1` [Compound 10i, 2-(((3-(4-Methoxyphenyl)-1,2,4-oxadiazol-5-yl)methyl)thio)-4-(4-chlorophenyl)-6-oxo-1,6-dihydropyrimidine-5-carbonitrile], the IC50 turned out to be 71 ± 5 nM in [1]; 34 ± 1 nM in data set [2]; 28 ± 1 nM in data set [3]; 33 ± 2 nM in [4]; 39 ± 2 nM in [5]; 30 ± 1 nM in data set [7]. For the same compound, the GI50 came out at 34 nM in data set [6] (Homo sapiens) and 31 nM in data set [6]. The viability at 96 h, 50 µM in data set [8] is 91%.

Take `CC(=O)c1ccc(NC(=O)CSC2=NC(=O)C(C#N)C(c3ccccc3)N2)cc1` (stereo not shown) [Compound II]: the IC50 in data set [12] (read-out: VEGFR-2 kinase IC50) is 199 nM.
